What was measured:
[1] = target: T1, TSPO (Rattus norvegicus, UniProt P16257); assay: Radioligand displacement of [3H]PK 11195 in C6 glioma cell / tumor lysate; format: binding; parameters: from tissue; host or cells: C6 glioma tumour and normal brain / other tissues of living rats; conditions: tumor lysate / C6 cell lysate
Protocol: Given our focus of targeting TSPO expressed in tumors, affinity assays will be conducted in whole and fractionated tumor lysate.
In this Example Glioma-bearing rats were imaged with [^18F]PBR06 in a microPET system. Dynamic acquisitions were acquired simultaneously upon injection of 70-100 MBq/0.2 mL [^18F]PBR06. Over the course of scanning, arterial blood was collected to derive the input function, with HPLC radiometabolite analysis performed on selected samples for arterial input function correction. Compartmental modeling of the PET data was performed using the corrected arterial input function. Specific tumor cell binding of PBR06 was evaluated by radioligand displacement of [^3H]PK 11195 with PBR06 in vitro and by displacement of [^18F]PBR06 with excess PBR06 in vivo. Immediately following imaging, tumor tissue and adjacent healthy brain were harvested for assay of TSPO protein levels by western blotting and immunohistochemistry.
Radioligand displacement of the high-affinity isoquinoline carboxamide TSPO ligand [^3H]PK 11195 was used to evaluate the specific binding of the non-radioactive analogue PBR06 in C6 glioma cell line homogenates in vitro (FIG. 10). […]

[2] = target: T1, TSPO; assay: In vivo PET evaluation of [18F]VUIIS-0005 in C6 glioma; parameters: from tissue; host or cells: C6 glioma tumour and normal brain / other tissues of living rats
Protocol: Dynamic microPET imaging can be performed as in tumor-bearing and non-tumor-bearing rats. […] Dynamic images (120 min) are collected, followed by CT for attenuation correction and cross-platform registration. For displacement studies, ‘cold’ analog (10 mg/kg) are injected via jugular catheter 30 min after radiotracer administration. Prior to PET scanning, tumors are localized in tumor-bearing rats using MRI, including T2-weighted and diffusion-weighted scans. For longitudinal studies, tumor volumes are measured using a three-dimensional, T2-weighted fast spin-echo sequence on a Varian 9.4 T horizontal bore imaging system.

SMILES: COc1ccc(OC)c(CN(C(=O)CF)c2ccccc2Sc2ccccc2)c1 [[^18F]VUIIS-0005]
- binding affinity (in words) [1]: improved binding affinity in tumor lysate compared to PBR06 or DPA-714
- in vivo uptake distribution (in words) [2]: primarily confined to tumor tissue, with significantly less normal brain uptake compared to ^18F-PBR06

— patent US9458161B1, “TSPO ligands for cancer imaging and treatment” (Vanderbilt University, priority 2011, dated 2016)
